Columns and labels:
Conditions in all cases: 48 h
NOMO1 [1] = experiment: cell viability relative to DMSO control; higher = less cytotoxic
Method in brief: (§1)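 Cells were incubated for 48 h at 37°C before CellTiter-Glo One luminescence was read. The cells were NOMO1 or SEM (500 cells/well) or P12-Ichikawa (1000 cells/well) leukemia cells, adapted for at least four passages in each medium and seeded in 1536-well plates (5 μl). Dosing used library compounds in DMSO applied by pin over 11 threefold points, 47 μM to 0.79 nM. Viability is the per-plate percentage of DMSO wells, with cell-free wells as background.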

P12-Ichikawa [2] = experiment: as above
Method in brief: as §1

SEM cells [3] = experiment: as above
Method in brief: as §1

NOMO1 [4] = experiment: AUC of viability dose-response curve (% viability x log10 dose units); higher = less sensitive
Method in brief: (§2)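 Leukemia cells adapted to each medium were seeded at 500 or 1000 cells/well in 1536-well plates and dosed with library compounds in DMSO at 11 threefold doses from 47 μM to 0.79 nM for 48 h at 37°C. CellTiter-Glo One luminescence was normalised per plate to DMSO and cell-free wells, then fitted with a four-parameter log-logistic model over log10 doses. Area under the curve was taken from this fit by the trapezoidal rule, with curves above full viability scaled and curves failing quality control removed.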

P12-Ichikawa [5] = experiment: as above
Method in brief: as §2

SEM cells [6] = experiment: as above
Method in brief: as §2

CN(N=O)C(=O)N[C@H]1C(O)OC(CO)[C@@H](O)[C@@H]1O (some centres undefined)
cell viability [%]
Conditions	NOMO1 [1]	P12-Ichikawa [2]	SEM cells [3]
HPLM + 10% dialyzed FBS, 0.000781 µM	82.7	91.5	66.7
HPLM + 10% dialyzed FBS, 0.00234 µM	89.7	84.9	75.4
HPLM + 10% dialyzed FBS, 0.00702 µM	98.6	82.8	79.1
HPLM + 10% dialyzed FBS, 0.0211 µM	95.7	84.2	74.5
HPLM + 10% dialyzed FBS, 0.0632 µM	98.6	89.2	81.8
HPLM + 10% dialyzed FBS, 0.19 µM	82.6	81.9	74.6
HPLM + 10% dialyzed FBS, 0.569 µM	90.2	85.8	74
HPLM + 10% dialyzed FBS, 1.71 µM	85	82.8	77.2
HPLM + 10% dialyzed FBS, 5.12 µM	83.1	84.2	89.2
HPLM + 10% dialyzed FBS, 15.4 µM	93.1	60.5	40.3
HPLM + 10% dialyzed FBS, 46.1 µM	88.4	83	37.9
RPMI 5 mM glucose + 10% FBS, 0.000781 µM	77.7	83.3	101
RPMI 5 mM glucose + 10% FBS, 0.00234 µM	79.6	84.2	101
RPMI 5 mM glucose + 10% FBS, 0.00702 µM	82.4	76.3	106
RPMI 5 mM glucose + 10% FBS, 0.0211 µM	80.6	75.8	87.8
RPMI 5 mM glucose + 10% FBS, 0.0632 µM	81.3	81.3	106
RPMI 5 mM glucose + 10% FBS, 0.19 µM	90.3	85.2	76.3
RPMI 5 mM glucose + 10% FBS, 0.569 µM	85.7	74.2	86.5
RPMI 5 mM glucose + 10% FBS, 1.71 µM	73.7	87.6	108
RPMI 5 mM glucose + 10% FBS, 5.12 µM	81.5	72.8	119
RPMI 5 mM glucose + 10% FBS, 15.4 µM	88	78.5	48.3
RPMI 5 mM glucose + 10% FBS, 46.1 µM	79.5	83.7	51.6
RPMI 5 mM glucose + 10% dialyzed FBS, 0.000781 µM	69.3	70.2	63.9
RPMI 5 mM glucose + 10% dialyzed FBS, 0.00234 µM	78.8	81.9	74
RPMI 5 mM glucose + 10% dialyzed FBS, 0.00702 µM	74.3	83.9	73.7
RPMI 5 mM glucose + 10% dialyzed FBS, 0.0211 µM	75.5	74.1	63.8
RPMI 5 mM glucose + 10% dialyzed FBS, 0.0632 µM	84.3	79.6	70.4
RPMI 5 mM glucose + 10% dialyzed FBS, 0.19 µM	75.6	76.6	55.1
RPMI 5 mM glucose + 10% dialyzed FBS, 0.569 µM	81.2	80.2	80.9
RPMI 5 mM glucose + 10% dialyzed FBS, 1.71 µM	82.7	81.7	78.5
RPMI 5 mM glucose + 10% dialyzed FBS, 5.12 µM	81.4	71.3	80.8
RPMI 5 mM glucose + 10% dialyzed FBS, 15.4 µM	86	71	32.7
RPMI 5 mM glucose + 10% dialyzed FBS, 46.1 µM	72.4	77.5	43.3

AUC of viability dose-response curve
Conditions	HPLM + 10% dialyzed FBS	RPMI 5 mM glucose + 10% FBS	RPMI 5 mM glucose + 10% dialyzed FBS
NOMO1 [4]	428	391	375
P12-Ichikawa [5]	397	383	368

O=c1cc(O)c(Cl)c[nH]1
AUC of viability dose-response curve
Conditions	NOMO1 [4]	P12-Ichikawa [5]	SEM cells [6]
HPLM + 10% dialyzed FBS	378	391	455
RPMI 5 mM glucose + 10% FBS	396	395	416
RPMI 5 mM glucose + 10% dialyzed FBS	394	417	453

Cc1nc(Nc2ncc(C(=O)Nc3c(C)cccc3Cl)s2)cc(N2CCN(CCO)CC2)n1
cell viability [%]
Conditions	NOMO1 [1]	P12-Ichikawa [2]	SEM cells [3]
HPLM + 10% dialyzed FBS, 0.000781 µM	90.9	108	88.1
HPLM + 10% dialyzed FBS, 0.00234 µM	104	104	106
HPLM + 10% dialyzed FBS, 0.00702 µM	102	110	93.3
HPLM + 10% dialyzed FBS, 0.0211 µM	99.9	104	98.3
HPLM + 10% dialyzed FBS, 0.0632 µM	107	111	91.7
HPLM + 10% dialyzed FBS, 0.19 µM	107	107	92
HPLM + 10% dialyzed FBS, 0.569 µM	113	107	80.2
HPLM + 10% dialyzed FBS, 1.71 µM	95.2	69.6	81.9
HPLM + 10% dialyzed FBS, 5.12 µM	83.9	14.2	54.9
HPLM + 10% dialyzed FBS, 15.4 µM	85.6	15.5	34.9
HPLM + 10% dialyzed FBS, 46.1 µM	71.9	15	29.9
RPMI 5 mM glucose + 10% FBS, 0.000781 µM	104	106	66.6
RPMI 5 mM glucose + 10% FBS, 0.00234 µM	102	109	68.9
RPMI 5 mM glucose + 10% FBS, 0.00702 µM	106	102	64.9
RPMI 5 mM glucose + 10% FBS, 0.0211 µM	101	108	78.4
RPMI 5 mM glucose + 10% FBS, 0.0632 µM	105	113	68.2
RPMI 5 mM glucose + 10% FBS, 0.19 µM	105	109	66.1
RPMI 5 mM glucose + 10% FBS, 0.569 µM	117	107	74.7
RPMI 5 mM glucose + 10% FBS, 1.71 µM	110	102	69.9
RPMI 5 mM glucose + 10% FBS, 5.12 µM	100	56.8	60.1
RPMI 5 mM glucose + 10% FBS, 15.4 µM	89.3	21.3	17.5
RPMI 5 mM glucose + 10% FBS, 46.1 µM	80.3	23.4	14.8
RPMI 5 mM glucose + 10% dialyzed FBS, 0.000781 µM	101	104	100
RPMI 5 mM glucose + 10% dialyzed FBS, 0.00234 µM	94.5	104	102
RPMI 5 mM glucose + 10% dialyzed FBS, 0.00702 µM	102	113	106
RPMI 5 mM glucose + 10% dialyzed FBS, 0.0211 µM	92.1	103	99.6
RPMI 5 mM glucose + 10% dialyzed FBS, 0.0632 µM	105	107	104
RPMI 5 mM glucose + 10% dialyzed FBS, 0.19 µM	94.3	106	99.9
RPMI 5 mM glucose + 10% dialyzed FBS, 0.569 µM	106	109	88.3
RPMI 5 mM glucose + 10% dialyzed FBS, 1.71 µM	96.2	99.3	79.2
RPMI 5 mM glucose + 10% dialyzed FBS, 5.12 µM	81	45.5	50.3
RPMI 5 mM glucose + 10% dialyzed FBS, 15.4 µM	75.9	33.7	26.4
RPMI 5 mM glucose + 10% dialyzed FBS, 46.1 µM	75.9	35.3	25.2

AUC of viability dose-response curve
Conditions	HPLM + 10% dialyzed FBS	RPMI 5 mM glucose + 10% FBS	RPMI 5 mM glucose + 10% dialyzed FBS
NOMO1 [4]	448	461	447
P12-Ichikawa [5]	358	396	398

— the supplement of paper PMC11451515
